Measurements from patent US10570179B2, “Substituted urea depsipeptide analogs as activators of the CLPP endopeptidase” (priority 2016, dated 2020).
Values after ≈ are worked out from the molar mass of the structure shown. Read-outs that look alike come from different tables or passages of the source. Numbered stars: 1 amine (or outer) side, 2 acyl side, 3 side chain; on linkers, the order of the positions; unused ones are H or OH. Bridge positions count the residues as written; N and C are the ends. Square brackets hold non-standard residues; d marks the D form. Peptide text beside a SMILES is read from it. * marks the point of attachment. Phe(3-CF3) = N[C@@H](Cc1cccc(C(F)(F)F)c1)C(=O)O; Piperazine(2S-CO,4-Me) = CN1CCN[C@H](C(=O)O)C1; NH(1,3-benzodioxol-5-yl) = c1cc2c(cc1N*)OCO2; Phe(3-OMe) = COc1cccc(C[C@H](N)C(=O)O)c1; Phe(3-Me) = Cc1cccc(C[C@H](N)C(=O)O)c1; X4 = O=C1CN([*:1])[C@H](C(=O)[*:2])CN1; NH(4-Cl-2-F-phenyl) = Fc1cc(Cl)ccc1N*; Pro(4R-Me) = C[C@H]1CN[C@H](C(=O)O)C1; NH(4-Et-phenyl) = CCc1ccc(N*)cc1; NH(4-Me-phenyl) = Cc1ccc(N*)cc1; aThr = C[C@H](O)[C@H](N)C(=O)O; Pip = O=C(O)[C@@H]1CCCCN1; X3 = c1cc2c(cc1N*)OCCO2; CO = O=C([*:1])[*:2]

How the values were obtained:
Solubility determination = format: physicochemical; conditions: for solubility kinetic at 10 min: 22 °C, aqueous buffer, kinetic from dmso stock
Method: Test compounds were synthesized and supplied by the Department of Chemical Biology and Therapeutics at St. Jude Children's Research Hospital (Memphis, Tenn.). LC-MS chromasolv grade acetonitrile (ACN) was purchased from Fisher Scientific (Loughborough, UK). LC-MS chromasolv grade formic acid was obtained from Sigma-Aldrich (St. Louis, Mo.). Milli-Q water as an ultrapure laboratory grade water was used in aqueous mobile phase.
Chromatographic separation was performed on an Acquity UPLC BEH C18 1.7 μm, 2.1×50 mm column (Waters Corporation, Milford, Mass.) using an Acquity ultra performance liquid chromatography system. The total flow rate was 0.9 mL/min. The sample injection volume was 10 μL. The UPLC column was maintained at 60° C. and the gradient program started at 90% A (0.1% formic acid in MilliQ H2O), changed to 70% A over 0.2 min, to 95% B (0.1% formic acid in ACN) over 1.4 minutes, held for 0.35 minutes, then to 90% A over 0.05 minutes.
Mass data was acquired with an Acquity SQD Mass Spectrometer. The mass spectrometer was operated in positive-ion mode with electrospray ionization. The conditions were as follows: capillary voltage 3.5 kV, cone voltage 30 V, source temperature 150° C., desolvation temperature 350° C., desolvation gas 500 L/hr, cone gas 25 L/hr. Data were acquired using Masslynx v. 4.1 and analyzed using the Quanlynx software suite. A full scan range from m/z=100-1000 in 0.2 s was used to acquire MS data. Both UV and Single ion recording mass spectrometry were used to determine the quantification of the samples.
Stock solutions were prepared by dissolving compounds into DMSO to yield a concentration of 10 mM. Stock solutions were stored at room temperature.
Calibration standards were made by adding stock solutions to DMSO for final concentrations of compounds at concentration of 100, 25, 6.25, 1.563, 0.391 and 0.098 μM.
Solubility test samples were made by adding stock solutions to 200 μL, of DPBS for final concentrations of compounds at 100 μM in a 96-well analytical plate (300 μL, maximum volume in each well). Samples were tested in triplicates. The plate was sealed, shaken at 600 rpm for 10 minutes, and then was centrifuged at 4000 rpm for 20 min at 22° C. 100 μL, of the supernatant was transferred to a new analytical 96-well plate and 10 μL, was injected onto the LCMS system.
Two calibration curves for solubility test samples were analyzed during the quantitation process. The linear regression of test compound peak areas was weighted by 1/x^2. […] Coefficient of determination (R^2) was used to evaluate the linearity of each calibration curve.

[1] = Plasma protein binding, rapid equilibrium dialysis; format: in vitro ADME, mouse
Method: This assay determines plasma protein binding of a drug/compound and free drug concentration in plasma using rapid equilibrium dialysis, which allow the aqueous component of plasma containing the free drug/compound through a dialysis membrane (MWCO˜8,000).
Solutions were prepared at 10 mM in DMSO. Dulbecco's phosphate buffered saline (DPBS; pH 7.4) was obtained from Invitrogen (Carlsbad, Calif.). Single-Use RED (rapid equilibrium dialysis) device was obtained from Thermo scientific (Rockford, Ill.). Human plasma was obtained from Innovative Research INC (Novi, Michigan, Ill).
Sample preparation for plasma protein binding was modified from Waters' method. (Waters et al. (2008) J. Pharm. Sci. 97(10): 4586-95). The Teflon base plate with the RED inserts (MWCO 8 K) were allowed to use without any pre-condition the membrane inserts. Human plasma was thawed and centrifuged at 1000 rpm for 2 min to remove any particulates. Each compound was prepared at 10 μM in human plasma. This was done by adding 1 μL, of drug solution (10 mM in DMSO) to 1000 μL, of human plasma (0.1% DMSO). Spiked plasma solutions (300 μL) were placed into the sample chamber (indicated by the red ring) and 500 μL, of DPBS into the adjacent chamber. The plate was sealed and incubated at 37° C. on an orbital shaker (100 rpm) for 4 hours. After incubation, the seal was removed from the RED plate and the volume of the insert confirmed—little to no volume change occurred. Aliquots (50 μL) were removed from each side of the insert and dispensed into a 96-well deep plate. An equal volume of blank plasma or DPBS was added to the required wells to create analytically identical sample matrices (matrix matching). To each sample 200 μL, of ACN containing 4 μg/mL warfarin IS was added. All of the plates were sealed and mixed well at 600 rpm for 10 min and were centrifuged at 4000 rpm for 20 min. The supernatants (120 μL) were transferred to analytical plates for analysis by LCMS. Conditions for Waters ACQUITY-UPLC-MS-UV system were described separately. The test compound concentrations were quantified in both buffer and plasma chambers via peak areas relative to the internal standard. The percentage of the test compound bound to plasma was calculated on following equations: % Free=(Concentration buffer chamber/concentration plasma chamber)×100% and % Bound=100%-% Free.

Compound | solubility kinetic at 10 min (Solubility determination; solubility in DPBS, 100 μM test samples, LCMS, read-out: LCMS) | μsol (μM) (Solubility determination; solubility) | Mouse ([1]; plasma binding, % Bound, mouse plasma) | μsol (μM) (Solubility determination) | solubility kinetic at 10 min (Solubility determination) | Mouse ([1]; mouse, 4 h, 10 μM, pH 7.4)
Cc1ccc(NC(=O)N[C@@H](Cc2cccc(C)c2)C(=O)N[C@H]2COC(=O)[C@@H]3C[C@@H](C)CN3C(=O)[C@H](C)NC(=O)[C@@H]3CN(C)CCN3C(=O)[C@@H]3CCCN3C2=O)cc1 [Compound 15, (S)-3-(M-TOLYL)-2-(3-(P-TOLYL)UREIDO)-N-((6AS,12S,15AS,17R,21S,23AS)-2,17,21-TRIMETHYL-6,11,15,20,23-PENTAOXOOCTADECAHYDRO-2H,6H,11H,15H-PYRAZINO[2,1-I]DIPYRROLO[2,1-C:2′,1′-L][1]OXA[4,7,10,13]TETRAAZACYCLOHEXADECIN-12-YL)PROPANAMIDE] ({NH(4-Me-phenyl)-CO}-[Phe(3-Me)]SP[Piperazine(2S-CO,4-Me)]A[Pro(4R-Me)]; ester 2-C) | 57.2 ± 1.1 µM (≈ 45 µg/mL) | 25.1 ± 1.7 µM | 77.0 ± 6.1% |  |  | 
CCc1ccc(NC(=O)N[C@@H](Cc2cccc(C)c2)C(=O)N[C@H]2COC(=O)[C@@H]3C[C@@H](C)CN3C(=O)[C@H](C)NC(=O)[C@@H]3CN(C)CCN3C(=O)[C@@H]3CCCN3C2=O)cc1 [Compound 16, (S)-2-(3-(4-ETHYLPHENYL)UREIDO)-3-(M-TOLYL)-N-((6AS,12S,15AS,17R,21S,23AS)-2,17,21-TRIMETHYL-6,11,15,20,23-PENTAOXOOCTADECAHYDRO-2H,6H,11H,15H-PYRAZINO[2,1-I]DIPYRROLO[2,1-C:2′,1′-L][1]OXA[4,7,10,13]TETRAAZACYCLOHEXADECIN-12-YL)PROPANAMIDE] ({NH(4-Et-phenyl)-CO}-[Phe(3-Me)]SP[Piperazine(2S-CO,4-Me)]A[Pro(4R-Me)]; ester 2-C) |  |  |  | 47.4 ± 5.7 µM | 53.2 ± 6.5 µM (≈ 42.6 µg/mL) | 97.1 ± 0.1%
Cc1cccc(C[C@H](NC(=O)Nc2ccc3c(c2)OCO3)C(=O)N[C@H]2COC(=O)[C@@H]3C[C@@H](C)CN3C(=O)[C@H](C)NC(=O)[C@@H]3CN(C)CCN3C(=O)[C@@H]3CCCN3C2=O)c1 [Compound 17, (S)-2-(3-(BENZO[D][1,3]DIOXOL-5-YL)UREIDO)-3-(M-TOLYL)-N-((6AS,12S,15AS,17R,21S,23AS)-2,17,21-TRIMETHYL-6,11,15,20,23-PENTAOXOOCTADECAHYDRO-2H,6H,11H,15H-PYRAZINO[2,1-I]DIPYRROLO[2,1-C:2′,1′-L][1]OXA[4,7,10,13]TETRAAZACYCLOHEXADECIN-12-YL)PROPANAMIDE] ({NH(1,3-benzodioxol-5-yl)-CO}-[Phe(3-Me)]SP[Piperazine(2S-CO,4-Me)]A[Pro(4R-Me)]; ester 2-C) |  |  |  | 71.1 ± 0.7 µM | 64.6 ± 2 µM (≈ 52.8 µg/mL) | 88.4 ± 1.6%
C[C@@H]1C[C@H]2C(=O)OC[C@H](NC(=O)[C@H](Cc3cccc(C(F)(F)F)c3)NC(=O)Nc3ccc(Cl)cc3F)C(=O)N3CCC[C@H]3C(=O)N3CCN(C)C[C@H]3C(=O)N[C@@H](C)C(=O)N2C1 [Compound 18, (S)-2-(3-(4-CHLORO-2-FLUOROPHENYL)UREIDO)-3-(3-(TRIFLUOROMETHYL)PHENYL)-N-((6AS,12S,15AS,17R,21S,23AS)-2,17,21-TRIMETHYL-6,11,15,20,23-PENTAOXOOCTADECAHYDRO-2H,6H,11H,15H-PYRAZINO[2,1-I]DIPYRROLO[2,1-C:2′,1′-L][1]OXA[4,7,10,13]TETRAAZACYCLOHEXADECIN-12-YL)PROPANAMIDE] ({NH(4-Cl-2-F-phenyl)-CO}-[Phe(3-CF3)]SP[Piperazine(2S-CO,4-Me)]A[Pro(4R-Me)]; ester 2-C) |  |  |  | 22.7 ± 0.8 µM | 22.6 ± 2.1 µM (≈ 19.9 µg/mL) | 99.2 ± 0.1%
COc1cccc(C[C@H](NC(=O)Nc2ccc(Cl)cc2F)C(=O)N[C@H]2COC(=O)[C@@H]3C[C@@H](C)CN3C(=O)[C@H](C)NC(=O)[C@@H]3CN(C)CCN3C(=O)[C@@H]3CCCN3C2=O)c1 [Compound 19, (S)-2-(3-(4-CHLORO-2-FLUOROPHENYL)UREIDO)-3-(3-METHOXYPHENYL)-N-((6AS,12S,15AS,17R,21S,23AS)-2,17,21-TRIMETHYL-6,11,15,20,23-PENTAOXOOCTADECAHYDRO-2H,6H,11H,15H-PYRAZINO[2,1-I]DIPYRROLO[2,1-C:2′,1′-L][1]OXA[4,7,10,13]TETRAAZACYCLOHEXADECIN-12-YL)PROPANAMIDE] ({NH(4-Cl-2-F-phenyl)-CO}-[Phe(3-OMe)]SP[Piperazine(2S-CO,4-Me)]A[Pro(4R-Me)]; ester 2-C) |  |  |  | 51.5 ± 1.1 µM | 55.9 ± 2.9 µM (≈ 47 µg/mL) | 98.3 ± 0.1%
Cc1cccc(C[C@H](NC(=O)Nc2ccc(Cl)cc2F)C(=O)N[C@@H]2C(=O)N3CCC[C@H]3C(=O)N3CC(=O)NC[C@H]3C(=O)N[C@@H](C)C(=O)N3C[C@H](C)C[C@H]3C(=O)O[C@H]2C)c1 [Compound 20, (S)-2-(3-(4-CHLORO-2-FLUOROPHENYL)UREIDO)-3-(M-TOLYL)-N-((6AS,12S,13S,15AS,17R,21S,23AS)-13,17,21-TRIMETHYL-3,6,11,15,20,23-HEXAOXOOCTADECAHYDRO-2H,6H,11H,15H-PYRAZINO[2,1-I]DIPYRROLO[2,1-C:2′,1′-L][1]OXA[4,7,10,13]TETRAAZACYCLOHEXADECIN-12-YL)PROPANAMIDE] ({NH(4-Cl-2-F-phenyl)-CO}-[Phe(3-Me)][aThr]P[X4]A[Pro(4R-Me)]; ester 2-C) |  |  |  | 29.9 ± 1.5 µM | 34.4 ± 1.1 µM (≈ 28.9 µg/mL) | 98.7 ± 0.1%
Cc1cccc(C[C@H](NC(=O)Nc2ccc3c(c2)OCCO3)C(=O)N[C@@H]2C(=O)N3CCC[C@H]3C(=O)N3CCCC[C@H]3C(=O)N[C@@H](C)C(=O)N3C[C@H](C)C[C@H]3C(=O)O[C@H]2C)c1 [Compound 21, (S)-2-(3-(2,3-DIHYDROBENZO[B][1,4]DIOXIN-6-YL)UREIDO)-3-(M-TOLYL)-N-((2R,6S,8AS,14AS,20S,21S,23AS)-2,6,21-TRIMETHYL-5,8,14,19,23-PENTAOXOOCTADECAHYDRO-1H,5H,14H,19H-PYRIDO[2,1-I]DIPYRROLO[2,1-C:2′,1′-L][1]OXA[4,7,10,13]TETRAAZACYCLOHEXADECIN-20-YL)PROPANAMIDE] ({X3-CO}-[Phe(3-Me)][aThr]P[Pip]A[Pro(4R-Me)]; ester 2-C) |  |  |  | 36.8 ± 1.6 µM | 30.6 ± 0.7 µM (≈ 25.4 µg/mL) | 99.2 ± 0.1%
Cc1cccc(C[C@H](NC(=O)Nc2ccc3c(c2)OCCO3)C(=O)N[C@H]2COC(=O)[C@@H]3C[C@@H](C)CN3C(=O)[C@H](C)NC(=O)[C@@H]3CCCCN3C(=O)[C@@H]3CCCN3C2=O)c1 [Compound 22, (S)-2-(3-(2,3-DIHYDROBENZO[B][1,4]DIOXIN-6-YL)UREIDO)-N-((2R,6S,8AS,14AS,20S,23AS)-2,6-DIMETHYL-5,8,14,19,23-PENTAOXOOCTADECAHYDRO-1H,5H,14H,19H-PYRIDO[2,1-I]DIPYRROLO[2,1-C:2′,1′-L][1]OXA[4,7,10,13]TETRAAZACYCLOHEXADECIN-20-YL)-3-(M-TOLYL)PROPANAMIDE] |  |  |  | 7.6 ± 0.3 µM | 3.3 ± 0.2 µM (≈ 2.69 µg/mL) | 98.4 ± 0.1%
